Three molecules from patent US8039670B2, “Analogs of alpha galactosyceramide and uses thereof” (Ludwig Institute for Cancer Research, priority 2005, dated 2011) can be followed below.

Test [1] relates to IFN-γ from the iNKT cells. In words: IFN-γ ELISA of supernatants of DC/iNKT co-cultures. The format is cell-based, human. The note with it: analogs presented by DC. Here is the method:
(§1) Different analogs of α-GalCer as indicated or LPS were added to co-cultures of human DC and iNKT cells. (A) Maturation of the DC was assessed after 40 h, gating on CD11c positive cells. Histograms indicate the CD83 and CD86 profiles of DC from different treatments; the percentages indicate the percentage of CD83hi mature DC and the numbers in parenthesis, the mean fluorescence intensity of the population contained within the labeled gate. DC and iNKT cells were co-cultured in the presence of different analogs of α-GalCer for 24 hours. Supernatants were analyzed using ELISA for the presence of (B) IL-12p40 released by the DC and (C) IFN-γ from the iNKT cells. […] Cells were co-cultured in the presence of the indicated concentration of analog and the percentages of DC with increased CD83/CD80 are shown. […] Viability of α-GalCer or analog-pulsed DC was assessed after 40 h co-culture in the presence of iNKT cells by flow cytometry. Cells were stained with propidium iodide and the percentage of live CD11c gated cells remaining in the culture are shown.
(§2) Human monocyte-derived DC were pulsed with 150 ng of different inositol analogs and co-cultured with iNKT cells for 24 h. […] Numbers indicate the mean fluorescence intensity of the histogram gated on CD11c^+ cells.

In test [2] the test system is IL-12p40 released by the DC. In words: IL-12p40 ELISA of supernatants of DC/iNKT co-cultures. The format is cell-based, human. The note with it: DC/iNKT co-culture, 24 hours. Here is the method:
as §1, §2
Release of IL-12p40 (and bioactive p75) by DC is a marker of activation and is thought to play an important role in regulating the profile of the immune response generated in response to those DC (Trinchieri et al, Nat Rev Immunol, 2003, 3; 133-46).
For orientation: ELISA stands for enzyme-linked immunosorbent assay.

Test [3] concerns DCs obtained from the spleen. Briefly: Example E: phenotyping of spleen DCs after tail vein injection (CD86). Format: in vivo, mice. The note with it: 1 μg tail vein, 24 h. Here is the method:
In brief, in each experiment, 1 μg of one of a selection of compounds of the invention was injected into the tail vein of subject mice. 24 h later spleen tissue was removed from the animals and gently teased through gauze into complete medium, supplemented with 5 mM of EDTA. Cells were enriched for CD11c by anti-CD11, magnetic beads using published techniques. Once enriched, they were assayed for maturation markers using antibody staining and flow cytometry. Non-specific staining was addressed by using an antibody specific for the Fc-RIII/II receptor.

Test [4] has as its system OVA specific IgG antibodies. In words: Example D: OVA specific IgG antibodies in serum of immunized mice (ELISA). Format: in vivo. Conditions: ten days following immunization. Here is the method: OVA protein coated ELISA plates, were prepared, using well known methods. Then, blood samples were taken, ten days following immunization, and serum was prepared.
The samples were taken from mice that had been immunized with OVA only, OVA and Compound 1, arabinitol ceramide, OVA and αGal-Cer, or OVA and Compound 2, glycerol ceramide. Additionally, mice were immunized with each of these schedules with MPL added. Serum IgG titers were measured by adding serial dilutions of mouse serum were detected using horseradish peroxidase (HRP) conjugated α-mouse IgG.

Test [5] relates to OVA specific response. In words: Example C: OVA specific CTL response in mice injected with OVA and compound (tetramer). The format is in vivo. The note with it: for OVA specific response: 400 μg OVA with 1 μg compound i.v.; for CTL response with MPL coinjected: coinjected with 25 μg MPL. Here is the method: Subject animals, five mice per group, received an intravenous injection of 400 μg of ovalbumin (OVA) together with 1 μg of one of the compounds of the invention under examination or an equivalent volume of PBS diluted vehicle solution. A subset of mice were injected with 25 μg of the molecule MPL (Sigma-Aldrich; extracted from Salmonella Minnesota) solubilized in PBS.
Following the injections, blood was obtained from lateral tail veins, and PBLs were isolated, using standard methods. The PBLs were then stained, directly, […], with tetrameric, H-2 Kb/OVA 257-264, H-21 Kb complexes, following Palmowski, et al., J. Immunol., 168:4391-4398 (2002), incorporated by reference. The tetramers were prepared in accordance with Whilan, et al., J. Immunol., 163:4342-4348 (1999), incorporated by reference.

The test system of test [6] is antigen-specific CD8^+ T cells. Briefly: OVA-specific CD8+ T cells after co-injection with OVA ([…]-Kb tetramer). Format: in vivo, C57BL/6 mice. Conditions: 1 μg with 800 μg OVA, 6 days. Here is the method:
(A) C57BL/6 mice were co-injected with 1 μg α-GalCer or analog and 800 μg OVA. 6 days later blood samples taken from the tail vein were stained directly ex vivo with fluorescent […]-K^b tetramers and an anti-CD8 antibody and analyzed by flow cytometry. Data are shown as tetramer positive cells as a percentage of CD8^+ cells. (B) 7 days after injection, the mice were challenged in a prophylactic setting with 1×10^6 E.G7-OVA tumour cells s.c. and the size of the tumour monitored over subsequent days.
Previously we, and others have shown that co-injection of model antigens such as OVA (Silk, Hermans et al, J Clin Invest, 2004, 114; 1800-11, Fujii, Shimizu et al, J Exp Med, 2003, 198; 267-79, Hermans, Silk et al, J Immunol, 2003, 171; 5140-7) and β-galactosidase (Silk, Hermans et al, J Clin Invest, 2004, 114; 1800-11) together with α-GalCer induces enhanced CD8^+, CD4^+ T cell and B cell responses. These were effective for therapy against tumour cells expressing the target antigen. The various analogs were co-injected with OVA into wild type mice and 6 days later the blood examined for the presence of antigen-specific CD8^+ T cells using fluorescent K^b-[…] tetramers.

For test [7], the system named is Melan A-specific CD8^+ T cells. Briefly: Expansion of Melan-A26-35 specific CD8+ T cells in human PBMC/PBL cultures (tetramer). Format: cell-based. The note with it: for stimulation of antigen specific CTL responses in vitro: Example B, day 10, compared with αGal-Cer; for expansion of Melan-A26-35 specific T cells: human PBMC/PBL, FIG. 8. Here is the method:
Flow cytometry of day 10-15 cultures of PBMCs co-cultured with autologous irradiated APCs, pulsed with Melan-A26-35 peptide were stained with the tetrameter and anti-CD8^+-FITC.
In these experiments, T cell expansion was measured, by pulsing human DCs from PBLs with 100 nM of the known, immunogenic peptide MelanA26-35, […]. The peptide was added to the DCs together with syngeneic PBLs from the same donor. To detail these experiments more fully, samples of DCs were irradiated with 3000 rads followed by a 3 hour pulse with the peptide, in serum free medium.
The cells were then washed thoroughly and incubated with autologous, PBLs, at a 1:10 ratio, in RPMI 1640/5% human serum. Recombinant human IL-2 was added at 10 U/ml from day 4 to day 7. At day 10, following the addition of the PBLs, cells were analyzed. Cultured cells were stained with anti-CD8 and A2/MelanA25-35 tetramer. The percentage of MelanA specific CD8 T cells out of total CD8 positive cells was measured by FACS analysis.

For the molecule `CCCCCCCCCCCCCCCCCCCCCCCCCC(=O)N[C@@H](CO[C@H]1OC(CO)[C@H](O)C(O)C1O)[C@H](O)[C@H](O)CCCCCCCCCCCCCC` (stereo partly drawn) [α-GalCer, α galactosylceramide, reference compound], in test [1], the “IFN-γ released by the iNKT cells” value was “approximately 40 ng/ml”. In addition, the IL-12p40 released result in test [2] was “significant levels of IL-12p40”. Also, the “induction of CD86 on spleen DC in vivo” value in test [3] was “induced CD86 in vivo similarly”. In test [4], the “OVA specific antibody response, adjuvant effect compared with MPL” value is “more effective as adjuvants than MPL”. In addition, in test [5], the OVA specific response entry was “enhancement of the OVA specific response” and the “CTL response with MPL coinjected” value is given as “enhancement of the CTL response”.

As for `CCCCCCCCCCCCCCCCCCCCCCCCCC(=O)N[C@@H](COC[C@H](O)[C@@H](O)CO)[C@H](O)[C@H](O)CCCCCCCCCCCCCC` [Compound 3, Threitol Ceramide], in test [1], the “IFN-γ released by the iNKT cells” value was approximately 20 ng/mL. Further, the “antigen-specific CD8+ T cell response” value in test [6] is “induced a significant CD8^+ T cell response after 6 days, although less potently than α-GalCer”. Further, the “IL-12p40 level relative to that seen with α-GalCer” value in test [2] is “approximately 50%”. Also, the “induction of CD86 on spleen DC in vivo” value in test [3] was “did not induce the DC86 marker significantly”. Besides, the “stimulation of antigen specific CTL responses in vitro” value in test [7] is reported as “more potent stimulators of antigen specific CTL responses, in vitro, than αGal-Cer”. The “expansion of Melan-A26-35 specific T cells” value in test [7] (listed as threitol-ceramide) was “superior than glycerol-ceramide”. Also, the “expansion of Melan-A26-35 specific T cells” value in test [7] (listed as threitolceramide) is given as “at least as effective as with DC pulsed with α-GalCer”. Also, in test [5], the OVA specific response entry was “enhancement of the OVA specific response” and the “CTL response with MPL coinjected” value was “enhancement of the CTL response”.

As to `CCCCCCCCCCCCCCCCCCCCCCCCCC(=O)N[C@@H](COC[C@@H](O)CO)[C@H](O)[C@H](O)CCCCCCCCCCCCCC` [Compound 2, Glycerol Ceramide], the “IFN-γ released by the iNKT cells” value in test [1] is approximately 20 ng/mL. Further, in test [6], the “antigen-specific CD8+ T cell response” value is listed as “did not”. Further, the “IL-12p40 level relative to that seen with α-GalCer” value in test [2] is “approximately 50%”. Further, the “induction of CD86 on spleen DC in vivo” value in test [3] was “induced CD86 in vivo similarly”. For the same molecule, the “stimulation of antigen specific CTL responses in vitro” value in test [7] is listed as “more potent stimulators of antigen specific CTL responses, in vitro, than αGal-Cer”. Also, the “OVA specific antibody response, adjuvant effect compared with MPL” value in test [4] was “less effective than MPL whilst still producing OVA specific antibodies”. In addition, the OVA specific response entry in test [5] is “Enhancement was weakest”.
